Where a name gives a salt, the structure may show the parent alone.

For orientation: ED50 means the dose at which the effect has come halfway, by size or by number of responders.

This test deals with Charles River male albino mice. As to the kind of experiment: PBQ Writhing Assay (analgesic activity). Type of test: in vivo. On the set-up: key to PBQ WRITHING ASSAY I.G. (Active / *) / PBQ WRITHING ASSAY S.C. (Active / *): *: Indicates that, in accordance with the particular conditions set forth above for the Writhing Assay, and under the test criteria employed for that assay, after the administration of an initial screening dosage of 30 mg per kilogram of the compound, the number of writhes elicited by a mouse injected with PBQ was not equal to, or less than, one-half the median number of writhes recorded for the saline-treated control group of mice that day. The settings on record: for PBQ WRITHING ASSAY I.G. (Active / *): intragastric; for PBQ WRITHING ASSAY I.G. (Active / *) / PBQ WRITHING ASSAY S.C. (Active / *): initial screening dose 30 mg per kilogram, 30 min before PBQ i.p., writhes counted for ten minutes; for PBQ WRITHING ASSAY S.C. (Active / *): subcutaneous. The source says:
The Writhing Assay is one of the most widely-used experimental procedures for measuring the analgesic activity of different narcotic and nonnarcotic analgesic agents, and involves the continuous, chemically-induced pain of visceral origin to an animal, such as a mouse or rat. [Gyires et al., Arch. int. Pharmacodyn, 267, 131-140 (1984); […] al., Fed. Proc., 15, 494 (1956); Koster et al., Fed. Proc., 18, 412 (1959); and Witken et al., J. Pharmacol. exp. Ther., 133, 400-408 (1961).] Chemicals which may be used to induce this pain include phenylbenzoquinone (PBQ) and acetic acid. As a result of the chemical irritation to the animal, a characteristic stretching and writhing of the animal (dorsiflexion of the animal's back, extension of its hindlimbs and the strong contraction of its abdominal musculature) will generally occur. […] Drugs which reduce the number of writhes of the animal appear to restore the normal nociceptive threshold of the animal. Charles River male albino mice, weighing 20 to 30 grams were used in this assay. Thirty minutes after subcutaneous or intragastric administration to ten mice of 30 mg per kilogram of body weight of a compound of the present invention ("test compound"), […] per 10 g of body weight of a 0.025% w/v solution of PBQ was injected intraperitoneally into each mouse. Ten mice which were given saline in place of a test compound of the invention were used as a control group. Five minutes later, each mouse was individually placed into a glass beaker for observation, and the number of writhes occurring during the following ten-minute period was counted. A test compound was considered to have produced analgesia in a mouse if, in accordance with the conditions set forth above, and under the test criteria employed for this assay, after the administration of 30 mg per kilogram of body weight of a compound of the present invention to the mouse, the number of writhes elicited by a mouse injected with PBQ was equal to, or less than, one-half the median number of writhes recorded for the saline-treated control group of mice that day, as described by Taber in "Predictive Value of Analgesic Assays in Mice and Rats," Advances in Biochemical Psychopharmacology, 8, 191 (1974). The standard initial screening dose of a test compound employed in this assay was […] for both routes of administration. If this initial screening dose of the test compound produced analgesia in seven of ten mice, then the effect of additional doses of the test compound on the writhing response was evaluated, and then the ED50 dose was generally calculated. (The slopes of the dose-response curves for all test compounds analyzed were compared as described by Tallarida and Murray, Manual of Pharmacologic Calculations, Page 11 (Springer Verlag, New York, 1981)).

As for `O=C(CCCc1ccncc1)NNC(=O)N1Cc2ccccc2Oc2ccc(Cl)cc21` [Example 31, 8-chlorodibenz[b,f][1,4]oxazepine-10(11H)-carboxylic acid, 2-[1-oxo-4-(4-pyridinyl)butyl]hydrazide], the “PBQ WRITHING ASSAY I.G. (Active / *)” value is listed as “Active” and the “PBQ WRITHING ASSAY S.C. (Active / *)” value was “Active”.

For the compound “8-chlorodibenz[b,f][1,4loxazepine-10(11H)-carboxylic acid, 2-(2-pyridinylacetyl)hydrazide, monohydrochloride [Example 21]”, the “PBQ WRITHING ASSAY I.G. (Active / *)” value is on record as “*” and the “PBQ WRITHING ASSAY S.C. (Active / *)” value is listed as “*”.

In the case of `O=C(CCCc1ccsc1)NNC(=O)N1Cc2ccccc2Oc2ccc(Cl)cc21` [Example 16, 8-chlorodibenz[b,f][1,4]oxazepine-10(11H)-carboxylic acid, 2-[1-oxo-4-(3-thienyl)butyl]hydrazide], the “PBQ WRITHING ASSAY I.G. (Active / *)” value is “Active” and the “PBQ WRITHING ASSAY S.C. (Active / *)” value is listed as “*”.

`Cl.O=C(/C=C/c1ccccn1)NNC(=O)N1Cc2ccccc2Oc2ccc(Cl)cc21` [Example 20, 8-chlorodibenz[b,f][1,4]oxazepine-10(11H)-carboxylic acid, 2-[1-oxo-3-(2-pyridinyl)-2E-propenyl]hydrazide, monohydrochloride]: the “PBQ WRITHING ASSAY I.G. (Active / *)” value is given as “*” and the “PBQ WRITHING ASSAY S.C. (Active / *)” value is listed as “*”.

As for `O=C(CCCCc1cccs1)NNC(=O)N1Cc2ccccc2Oc2ccc(Cl)cc21` [Example 33, β-chlorodibenz[b,f][1,4]oxazepine-10(11H)-carboxylic acid, 2-[1-oxo-5-(2-thienyl)pentyl]hydrazide], the “PBQ WRITHING ASSAY I.G. (Active / *)” value is “*” and the “PBQ WRITHING ASSAY S.C. (Active / *)” value is listed as “*”.

As for “8-chlorodibenz[b,f][1,4]oxazepine-10(11H)-carboxylic acid, 2-[1-oxo-4-(3-thienyl)-3E-butenyl]hydrazide [Example 13]”, the “PBQ WRITHING ASSAY I.G. (Active / *)” value was “*” and the “PBQ WRITHING ASSAY S.C. (Active / *)” value is on record as “*”.

With `O=C(NNC(=O)C(F)(F)Cc1ccccn1)N1Cc2ccccc2Oc2ccc(Cl)cc21` [Example 37, 8-chlorodibenz[b,f][1,4]oxazepine-10(11H)-carboxylic acid, 2-[2,2-difluoro-1-oxo-3-(2-pyridinyl)propyl]hydrazide], the “PBQ WRITHING ASSAY I.G. (Active / *)” value is on record as “Active”. Further, the ED50 (Mus musculus, po, intragastric administration, read-out: PBQ WRITHING ASSAY (ED50 (mpk)) I.G.) was determined as 9.7 mg/kg.

As for `Cl.O=C(Cc1ccncc1)NNC(=O)N1Cc2ccccc2Oc2ccc(Cl)cc21` [Example 23, 8-chlorodibenz[b,f][1,4]oxazepine-10(11H)-carboxylic acid, 2-(4-pyridinylacetyl)hydrazide, monohydrochloride], the “PBQ WRITHING ASSAY I.G. (Active / *)” value was “*” and the “PBQ WRITHING ASSAY S.C. (Active / *)” value is listed as “*”.

As to “8-chlorodibenz[b,f][1,4]oxazepine-10(11H)-carboxylic acid, 2-[1-oxo-4-(3-thienyl)-3Z-butenyl]hydrazide [Example 14]”, the “PBQ WRITHING ASSAY I.G. (Active / *)” value is on record as “*” and the “PBQ WRITHING ASSAY S.C. (Active / *)” value was “*”.

For `O=C(/C=C/c1cccnc1)NNC(=O)N1Cc2ccccc2Oc2ccc(Cl)cc21` [Example 7, 8-chlorodibenz[b,f][1,4]oxazepine-10(11H)-carboxylic acid, 2-[1-oxo-3-(3-pyridinyl)-2E-propenyl]hydrazide], the “PBQ WRITHING ASSAY I.G. (Active / *)” value is recorded as “Active” and the “PBQ WRITHING ASSAY S.C. (Active / *)” value was “Active”.

On to `Cl.O=C(NNC(=O)N1Cc2ccccc2Oc2ccc(Cl)cc21)c1cccnc1` [Example 18, 8-chlorodibenz[b,f][1,4]oxazepine-10(11H)-carboxylic acid, 2-(3-pyridinylcarbonyl)hydrazide, monohydrochloride], for which the “PBQ WRITHING ASSAY I.G. (Active / *)” value is given as “*” and the “PBQ WRITHING ASSAY S.C. (Active / *)” value is “*”.

Take `O=C(CCc1cccnc1)NNC(=O)N1Cc2ccccc2Oc2ccc(Cl)cc21` [Example 8, 8-chlorodibenz[b,f][1,4]oxazepine-10(11H)-carboxylic acid, 2-[1-oxo-3-(3-pyridinyl)propyl]hydrazide, monohydrochloride]: the “PBQ WRITHING ASSAY I.G. (Active / *)” value is “Active” and the “PBQ WRITHING ASSAY S.C. (Active / *)” value is listed as “Active”.

For `Cl.O=C(NNC(=O)N1Cc2ccccc2Oc2ccc(Cl)cc21)c1ccccn1` [Example 19, 8-chlorodibenz[b,f][1,4]oxazepine-10(11H)-carboxylic acid, 2-(2-pyridinylcarbonyl)hydrazide, monohydrochloride], the “PBQ WRITHING ASSAY I.G. (Active / *)” value is listed as “*” and the “PBQ WRITHING ASSAY S.C. (Active / *)” value is on record as “*”.

Turning to `Cl.O=C(NNC(=O)N1Cc2ccccc2Oc2ccc(Cl)cc21)c1ccncc1` [Example 17, 8-chlorodibenz[b,f][1,4]oxazepine-10(11H)-carboxylic acid, 2-(4-pyridinylcarbonyl)hydrazide, monohydrochloride], the “PBQ WRITHING ASSAY I.G. (Active / *)” value is listed as “*” and the “PBQ WRITHING ASSAY S.C. (Active / *)” value is recorded as “*”.

On to `Cl.O=C(Cc1cccnc1)NNC(=O)N1Cc2ccccc2Oc2ccc(Cl)cc21` [Example 22, 8-chlorodibenz[b,f][1,4]oxazepine-10(11H)-carboxylic acid, 2-(3-pyridinylacetyl)hydrazide, monohydrochloride], for which the “PBQ WRITHING ASSAY I.G. (Active / *)” value is on record as “*” and the “PBQ WRITHING ASSAY S.C. (Active / *)” value is listed as “Active”.

As for `O=C(CCc1cccc[n+]1[O-])NNC(=O)N1Cc2ccccc2Oc2ccc(Cl)cc21` [Example 10, 8-chlorodibenz[b,f][1,4]oxazepine-10(11H)--carboxylic acid, 2-[1-oxo-3-(2-pyridinyl)propyl]hydrazide, N-oxide], the “PBQ WRITHING ASSAY I.G. (Active / *)” value was “*” and the “PBQ WRITHING ASSAY S.C. (Active / *)” value is recorded as “*”.

As to `Cl.O=C(/C=C/c1ccncc1)NNC(=O)N1Cc2ccccc2Oc2ccc(Cl)cc21` [Example 27, 8-chlorodibenz[b,f][1,4]oxazepine-10(11H)-carboxylic acid, 2-[1-oxo-3-(4-pyridinyl)-2E-propenyl]hydrazide, monohydrochloride], the “PBQ WRITHING ASSAY I.G. (Active / *)” value was “*” and the “PBQ WRITHING ASSAY S.C. (Active / *)” value was “*”.

In the case of `Cl.O=C(CCCc1ccccn1)NNC(=O)N1Cc2ccccc2Oc2ccc(Cl)cc21` [Example 29, 8-chlorodibenz[b,f][1,4]oxazepine-10(11H)-carboxylic acid, 2-[1-oxo-4-(2-pyridinyl)butyl]hydrazide, monohydrochloride], the “PBQ WRITHING ASSAY I.G. (Active / *)” value is on record as “Active” and the “PBQ WRITHING ASSAY S.C. (Active / *)” value is “Active”.

The values above are taken from patent EP0694545B1, “Substituted dibenzoxazepine compounds, pharmaceutical compositions and methods of use” (G.D. SEARLE & CO., priority 1991, dated 1992).
